Legend:
S. cerevisiae [1] = test: Growth inhibition in varying NaCl (checkerboard); assay type: cell-based, Saccharomyces cerevisiae; conditions: 1/2 PDB; for Effect of increasing NaCl concentration on growth inhibitory activity: NaCl checkerboard up to about 100 mM, representative of three independent replicates
Protocol: (§1) Antifungal assays were performed as described in ([Bleackley et al., 2014]). S. cerevisiae cells were prepared by diluting to an OD600 = 0.01 and C. albicans cells were diluted to OD600 = 0.0002 in ½ strength potato dextrose broth (1/2 PDB) (Becton Dickinson). Assays investigating the combined effect of chemical cell wall synthesis inhibitors with defensins were performed as described in ([Bleackley et al., 2017]). Synergy was assessed using the fractional inhibitory concentration (FIC) equation. FIC=MICAcombination/MICAalone+MICBcombination/MICBalone
(§2) Synergy is defined as an FIC value of less than 0.5. Assays investigating the activity of defensins in salt were set up using the same checkerboard method as the synergy assays but with NaCl in place of one of the antifungal molecules.

S. cerevisiae fks1Δ = test: Antifungal growth assay, 1,3-β-glucan synthase deletion strain; assay type: cell-based, Saccharomyces cerevisiae; conditions: 1/2 PDB, twofold dilution series, lowest concentration with no visible growth, three independent experiments
Protocol: (§3) Saccharomyces cerevisiae deletion strains were retrieved from the haploid non-essential deletion collection (ThermoScientific) and were isogenic with the wild type BY4741 (MATa his3Δ1 leu2Δ0 met15Δ0 ura3Δ0). Candida albicans experiments were performed with strain ATCC90028.
as §1

[2] = Polysaccharide binding (solution depletion) to yeast β-glucan; conditions: one-site binding model
Protocol: (§4) Defensin binding to polysaccharides was examined using the protocol described in ([Osmond et al., 2001]) with some modifications. Briefly, the insoluble polysaccharides, yeast β-glucan (Megazyme), chitin from shrimp shells (Sigma), and microcrystalline cellulose (Sigma) were washed twice with water and once with phosphate buffered saline (PBS) and resuspended in PBS at 100 mg/mL. The appropriate volume of polysaccharide suspension was transferred to a 1.5 mL microfuge tube. PBS was added to increase the volume to 47.5 µL followed by defensin (2.5 µL of 0.8 mg/mL in H2O). This mixture was incubated on a rotating wheel at room temperature for 30 min before insoluble polysaccharide was pelleted at 17 000 g. Supernatant (25 µL) was transferred to a clean 1.5 mL microfuge tube, mixed with 5 µL of a 1:9 mix of Bond Breaker reducing agent (ThermoFisher):NuPage LDS Loading Buffer (Invitrogen) and heated to 95 °C for 20 min. Samples (20 µL) were loaded onto a 10% NOVEX Bolt BisTris gel (Life Technologies). Proteins were visualized by staining with RAPIDstain (Calbiochem) and imaged on a ChemiDoc (Bio-Rad). Densitometry was performed on resulting bands using the quantitation tool in ImageLab (V4.0 Bio-Rad) and the abundance of defensin remaining in the supernatant was calculated relative to the no polysaccharide control. Relative binding to the pellet was inferred as the amount of defensin that had been depleted from the supernatant (1-relative binding to pellet). All experiments were performed in triplicate. Kd values were calculated by plotting the relative binding vs the polysaccharide concentration in Prism (V7.0 GraphPad) and using the non-linear regression tool with the one-site binding hyperbola equation.

S. cerevisiae BY4741 [3] = test: Antifungal growth assay, wild type; assay type: cell-based, Saccharomyces cerevisiae; conditions: 1/2 PDB, twofold dilution series, lowest concentration with no visible growth, three independent experiments
Protocol: as §3, §1

[4] = Polysaccharide binding (solution depletion) to chitin; set-up: species or system shrimp; conditions: one-site binding model
Protocol: as §4

S. cerevisiae [5] = test: Checkerboard synergy assay with polysaccharide synthase inhibitors; assay type: cell-based, Saccharomyces cerevisiae; conditions: average of three independent experiments ± standard deviation, synergy FIC <0.5
Protocol: as §1, §2

S. cerevisiae chs3Δ = test: Antifungal growth assay, chitin synthase deletion strain; assay type: cell-based, Saccharomyces cerevisiae; conditions: 1/2 PDB, twofold dilution series, lowest concentration with no visible growth, three independent experiments
Protocol: as §3, §1

S. cerevisiae BY4741 [6] = test: Survival assay in the presence of exogenous 1,3-β-glucan (laminarin); assay type: cell-based, Saccharomyces cerevisiae; conditions: plated on YPD agar; for Laminarin concentration protecting against the antifungal activity of NaD1: 20 µM NaD1, 1 h
Protocol: To assess the effect of exogenous 1,3-β-glucan on the activity of NaD1, a survival assay was employed essentially as described in ([Bleackley et al., 2017]). A two-fold dilution series of laminarin (Sigma) from 50 mg/mL was prepared in MilliQ H2O and 10 µL of each concentration plus a no laminarin control were transferred to the wells of a U-bottom 96 well microtitre plate (Greiner Bio-one). NaD1 (10 µL of 200 µM solution) was added to each laminarin preparation. Controls with no NaD1 or laminarin were also prepared. An overnight culture of S. cerevisiae BY4741 cells was diluted to OD600 = 0.1 in ½ PDB. The diluted yeast cell suspension was then added to each of the wells of the microtitre plate and incubated at 30 °C with shaking at 750 rpm in a Thermomixer (Eppendorff) for 1 h. A fivefold dilution series of each treatment was then spotted onto YPD agar (1% yeast extract, 2% peptone, 2% dextrose, 2% agar) and incubated at 30 °C prior to imaging.

C. albicans = test: Checkerboard synergy assay with polysaccharide synthesis inhibitors; assay type: cell-based, Candida albicans; conditions: for MIC: Candida albicans, read-out: MIC of polysaccharide synthesis inhibitor alone
Protocol: as §3, §1, §2

[7] = system: yeast cells with intact cell walls; test: Cell death of intact yeast cells, SYTOX green flow cytometry; assay type: cell-based, Saccharomyces cerevisiae
Protocol: (§5) Spheroplasts were prepared as outlined in ([Guthrie and Fink, 2002]) with modifications. Cells were prepared with and without the addition of zymolyase (Sigma) and washed twice with ½ PDB with 1 M sorbitol prior to any defensin treatment. Successful hydrolysis of the cell wall was assessed by pelleting an aliquot of spheroplasts, resuspending in MilliQ H2O and assessing cell lysis. For survival assays, intact cells or spheroplasts were diluted in ½ PDB with 1 M sorbitol to an OD600 = 1. NaD1 (10 µL) at 0, 25, 50 or 100 µM was added to 90 µL of prepared cells or spheroplasts and incubated at 30 °C for 30 min. Serial dilutions of each treatment were plated onto YPD and incubated for 24 h at 30 °C prior to imaging. Assessment of the effect of NaCl on the activity of NaD1 on spheroplasts was conducted as described above except for the addition of 100 mM NaCl to the ½ PDB 1 M sorbitol in the appropriate treatment. The cell death indicator, SYTOX green (ThermoFisher), was added to all treatments to a final concentration of 1 µM and FACS analysis was performed using a FACS Canto II (BD biosciences) using the FITC settings. Analysis was performed using Weasel V3.0 (Walter and Eliza Hall Institute of Medical Research).

[8] = Polysaccharide binding (solution depletion) to cellulose; conditions: SDS-PAGE analysis of supernatant, 3 independent experiments
Protocol: as §4, with “Samples (20 µL) were loaded onto a 10% NOVEX Bolt BisTris gel (Life Technologies). Proteins were visualized by staining with RAPIDstain (Calbiochem) and imaged on a ChemiDoc (Bio-Rad).” left out, “Relative binding to the pellet was inferred as the amount of defensin that had been depleted from the supernatant (1-relative binding to pellet). All experiments were performed in triplicate.” left out

yeast spheroplasts = test: Cell death of spheroplasts, SYTOX green flow cytometry; assay type: cell-based, Saccharomyces cerevisiae
Protocol: as §5

[9] = insoluble polysaccharide in PBS, 30 min room temperature, SDS-PAGE densitometry of supernatant, Kd based on concentration of monosaccharide units, ± SEM, three independent replicates
[10] = C. albicans checkerboard, synergy defined as FIC < 0.5
[11] = solution depletion, SDS-PAGE densitometry, polysaccharide mass concentration, 3 independent experiments

Molecule: DmAMP1: defensin from Dahlia merckii expressed in Pichia pastoris (ELCEKASKTWSGNCGNTGHCDNQCKSWEGAAHGACHVRNGKHMCFCYFNC; UniProt P0C8Y4 1-50, looked up)
- Effect of increasing NaCl concentration on growth inhibitory activity (S. cerevisiae [1]): no loss of growth inhibitory activity
- Concentration completely inhibiting growth (S. cerevisiae [1]; absence of added NaCl, absorbance at 595 nm): 0.313 µM
- MIC (S. cerevisiae fks1Δ): 0.16 µM
- Kd, β-glucan [2, 9]: No binding
- MIC (S. cerevisiae BY4741 [3]): 0.31 µM
- Kd, chitin [4, 9]: Neither TsD10 nor DmAMP1 bound
- FIC in combination with caspofungin (S. cerevisiae [5]): 0.6 ± 0.06
- FIC in combination with nikkomycin (S. cerevisiae [5]): 0.64 ± 0.16
- MIC (S. cerevisiae chs3Δ): 0.31 µM

Molecule: laminarin
- Laminarin concentration protecting against the antifungal activity of NaD1 (S. cerevisiae BY4741 [6]): ≥ 1.25 mg/mL
- Laminarin concentration protecting against the antifungal activity of NaD1 (S. cerevisiae BY4741 [6]; listed as Laminarin): above 1.25 mg/mL

Molecule: CC[C@H](C)C[C@H](C)CCCCCCCCC(=O)N[C@H]1C[C@@H](O)[C@@H](NCCN)NC(=O)[C@@H]2[C@@H](O)CCN2C(=O)[C@H]([C@H](O)CCN)NC(=O)[C@H]([C@H](O)[C@@H](O)c2ccc(O)cc2)NC(=O)[C@@H]2C[C@@H](O)CN2C(=O)[C@H]([C@@H](C)O)NC1=O [caspofungin, reference compound]
- MIC (C. albicans): 0.25 µg/mL

Molecule: C[C@@H]([C@H](N)C(=O)N[C@H](C(=O)O)[C@H]1O[C@@H](n2ccc(=O)[nH]c2=O)[C@H](O)[C@@H]1O)[C@H](O)c1ccc(O)cn1 [nikkomycin Z, reference compound]
- MIC (C. albicans): 2.5 µg/mL

Molecule: NaD1: plant defensin from the ornamental tobacco Nicotiana alata, isolated from flowers (RECKTESNTFPGICITKPPCRKACISEKFTDGHCSKILRRCLCTKPC; UniProt Q8GTM0 26-72, looked up)
- Effect of increasing NaCl concentration on growth inhibitory activity (S. cerevisiae [1]): progressively poorer inhibitor
- MIC (S. cerevisiae fks1Δ): 1.25 µM
- FIC in combination with caspofungin (C. albicans; [10]): 0.3
- FIC in combination with nikkomycin Z (C. albicans; [10]): 0.92
- Kd [2, 9]: 25.9 ± 5 mM
- Kd, β-glucan [2, 11]: 4.2 ± 0.8 mg/mL
- Effect on cell death ([7]; 1 M sorbitol with 100 mM NaCl, up to 10 µM NaD1, SYTOX green): unaffected
- Cell death (SYTOX green) ([7]; NaD1 5 µM, 1/2 PDB with 1 M sorbitol, 30 °C 30 min): 60%
- MIC (S. cerevisiae BY4741 [3]): 2.5 µM
- Binding to cellulose [8]: did not bind
- Kd [4, 9]: 33 ± 11.8 mM
- Kd, chitin [4, 11]: 6.7 ± 2.4 mg/mL
- FIC in combination with caspofungin (S. cerevisiae [5]): 0.3 ± 0.06
- MIC (S. cerevisiae chs3Δ): 2.5 µM
- NaD1 concentration giving significant cell death (yeast spheroplasts; 1 M sorbitol with 100 mM NaCl, SYTOX green): ≥ 0.313 µM
- Cell death (SYTOX green) (yeast spheroplasts; NaD1 concentrations above 0.625 µM, 1/2 PDB with 1 M sorbitol, 30 °C 30 min): over 60%
- Survival of yeast cells (S. cerevisiae BY4741 [6]; 20 µM NaD1, absence of laminarin, 1 h): eliminated all viable yeast cells

From PMC7389181, “The interaction with fungal cell wall polysaccharides determines the salt tolerance of antifungal plant defensins” (The Cell Surface, 2019)
